Laboratory results: ChEMBL document CHEMBL5257136, “PROTAC Targeted Degradation of IRAK-4 as Potential Treatment in Cancer” (ACS Med Chem Lett, 2023)

Experiments:
Format in all cases: cell-based
[1] = molecular target: T1, Protein cereblon/Interleukin-1 receptor-associated kinase 4 (Homo sapiens) (UniProt Q9NWZ3+Q96SW2); assay: Binding affinity to CRBN/IRAK4 in human PBMC cells assessed as inhibition of LPS-stimulated IL-6 production by measuring maximal efficacy incubated for 24 hrs by MSD analysis relative to control
T1 sequence (Q96SW2 whole entry, looked up): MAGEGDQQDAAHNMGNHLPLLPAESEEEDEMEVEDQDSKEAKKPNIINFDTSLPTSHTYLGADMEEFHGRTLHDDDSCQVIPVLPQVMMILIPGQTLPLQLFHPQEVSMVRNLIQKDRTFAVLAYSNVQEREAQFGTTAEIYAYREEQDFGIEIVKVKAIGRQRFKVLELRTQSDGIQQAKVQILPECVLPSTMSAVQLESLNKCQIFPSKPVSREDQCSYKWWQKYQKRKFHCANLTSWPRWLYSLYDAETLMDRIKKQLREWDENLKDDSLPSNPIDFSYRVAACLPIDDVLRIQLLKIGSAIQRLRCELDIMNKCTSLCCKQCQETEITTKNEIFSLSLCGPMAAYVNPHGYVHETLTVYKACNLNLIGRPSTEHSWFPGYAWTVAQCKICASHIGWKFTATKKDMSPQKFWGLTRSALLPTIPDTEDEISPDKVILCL
T1 sequence (Q9NWZ3 whole entry, looked up): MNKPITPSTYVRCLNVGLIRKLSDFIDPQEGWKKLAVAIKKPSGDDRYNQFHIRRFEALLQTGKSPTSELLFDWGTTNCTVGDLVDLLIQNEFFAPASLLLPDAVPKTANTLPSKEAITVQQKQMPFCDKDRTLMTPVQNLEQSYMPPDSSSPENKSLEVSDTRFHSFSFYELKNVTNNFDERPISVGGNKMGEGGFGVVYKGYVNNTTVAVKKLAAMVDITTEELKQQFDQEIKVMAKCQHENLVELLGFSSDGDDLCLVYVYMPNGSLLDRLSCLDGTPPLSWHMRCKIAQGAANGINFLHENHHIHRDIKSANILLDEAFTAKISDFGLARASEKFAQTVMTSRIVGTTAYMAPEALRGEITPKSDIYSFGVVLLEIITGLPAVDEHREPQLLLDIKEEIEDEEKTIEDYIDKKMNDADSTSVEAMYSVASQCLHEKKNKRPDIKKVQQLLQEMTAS

[2] = molecular target: T2, Protein cereblon/Interleukin-1 receptor-associated kinase 4 (Homo sapiens, UniProt Q96SW2+Q9NWZ3); assay: Binding affinity to CRBN/IRAK4 in human PBMC cells assessed as inhibition of LPS-stimulated IL-6 production incubated for 24 hrs by MSD analysis
T2 sequence (Q9NWZ3 whole entry): as the sequence (Q9NWZ3 whole entry, looked up) above
T2 sequence (Q96SW2 whole entry): as the sequence (Q96SW2 whole entry, looked up) above

[3] = molecular target: T1, Protein cereblon/Interleukin-1 receptor-associated kinase 4 (Homo sapiens); assay: Binding affinity to CRBN/IRAK4 in human PBMC cells assessed as inhibition of R848-stimulated IL-6 production by measuring maximal efficacy incubated for 24 hrs by MSD analysis relative to control
[4] = molecular target: T2, Protein cereblon/Interleukin-1 receptor-associated kinase 4; assay: Binding affinity to CRBN/IRAK4 in human PBMC cells assessed as inhibition of R848-stimulated IL-6 production incubated for 24 hrs by MSD analysis

Emax [1] [%] | IC50 [2] [nM] | Emax [3] [%] | IC50 [4] [nM] | Structure (SMILES)
> 90 | < 10 | > 90 | < 10 | O=C1CCC(N2Cc3ccc(N4CCC(CN5CCC(N6Cc7cc(NC(=O)c8cnn9cccnc89)c(N8CCC(N9CCC9)CC8)cc7C6=O)CC5)CC4)cc3C2=O)C(=O)N1 (stereo not given)
80 | < 10 | > 90 | < 10 | O=C1CCC(N2Cc3ccc(N4CC(F)(CN5CCC(N6Cc7cc(NC(=O)c8cnn9cccnc89)c(N8CCC(N9CCC9)CC8)cc7C6=O)CC5)C4)cc3C2=O)C(=O)N1 (stereo not given)
> 90 | < 10 | > 90 | < 10 | O=C1CCC(N2Cc3cc(N4CCC(CN5CCC(N6Cc7cc(NC(=O)c8cnn9cccnc89)c(N8CCC(N9CCC9)CC8)cc7C6=O)CC5)CC4)ccc3C2=O)C(=O)N1 (stereo not given)
> 90 | ≥ 10 | > 90 | ≥ 10 | CC(C)Oc1cc2c(cc1NC(=O)c1cnn3cccnc13)CN(C1CCN(C(C)(C)C3CN(c4ccc5c(c4)C(=O)N(C4CCC(=O)NC4=O)C5=O)C3)CC1)C2=O (stereo not given)
80 | ≥ 10 | 80 | ≥ 10 | O=C1CCC(N2C(=O)c3ccc(N4CCC(CN5CCC(N6Cc7cc(NC(=O)c8cnn9cccnc89)c(N8CCN(CC(F)F)CC8)cc7C6=O)CC5)CC4)cc3C2=O)C(=O)N1 (stereo not given)
> 90 | ≥ 10 | > 90 | ≥ 50 | CC(C)Oc1cc2c(cc1NC(=O)c1cnn3cccnc13)CN(C1CCN(CC3(F)CN(c4ccc5c(c4F)CN(C4CCC(=O)NC4=O)C5=O)C3)CC1)C2=O (stereo not given)
80 | < 10 | > 90 | < 10 | CC(C)Oc1cc2c(cc1NC(=O)c1cnn3cccnc13)CN(C1CCN(CC3CCN(c4ccc5c(c4)C(=O)N(C4CCC(=O)NC4=O)C5=O)CC3)CC1)C2=O (stereo not given)
70 | ≥ 10 | > 90 | < 10 | O=C1CCC(N2Cc3cc(N4CCC(CN5CCC(n6cc7cc(NC(=O)c8cnn9cccnc89)c(OCC(F)F)cc7n6)CC5)CC4)ccc3C2=O)C(=O)N1 (stereo not given)
80 | < 10 | > 90 | < 10 | O=C1CCC(N2Cc3ccc(N4CCC(CN5CCC(n6cc7cc(NC(=O)c8cnn9cccnc89)c(OCC8CC8)cc7n6)CC5)CC4)cc3C2=O)C(=O)N1 (stereo not given)
80 | < 10 | > 90 | < 10 | O=C1CCC(N2Cc3c(ccc(N4CCC(CN5CCC(n6cc7cc(NC(=O)c8cnn9cccnc89)c(N8CCN(CC(F)F)CC8)cc7n6)CC5)CC4)c3F)C2=O)C(=O)N1 (stereo not given)
